Values quoted from earlier work, collected in patent US20240139197A1, “INHIBITION OF KDM5A FOR PROMOTING ANTIGEN PRESENTATION, INCREASING CD8+ T CELL INFILTRATION AND BOOSTING ANTI-TUMOR IMMUNE RESPONSE” (The Wistar Institute of Anatomy and Biology, priority 2022, published 2024).
Like-named read-outs stand apart in the source and are kept apart here.

How the values were obtained:
KDM5A [1] = biological target: T1, KDM5A (Homo sapiens (Human), UniProt P29375); details: biochemical assay with pre-incubation; cited from earlier work
T1 sequence (P29375 whole entry): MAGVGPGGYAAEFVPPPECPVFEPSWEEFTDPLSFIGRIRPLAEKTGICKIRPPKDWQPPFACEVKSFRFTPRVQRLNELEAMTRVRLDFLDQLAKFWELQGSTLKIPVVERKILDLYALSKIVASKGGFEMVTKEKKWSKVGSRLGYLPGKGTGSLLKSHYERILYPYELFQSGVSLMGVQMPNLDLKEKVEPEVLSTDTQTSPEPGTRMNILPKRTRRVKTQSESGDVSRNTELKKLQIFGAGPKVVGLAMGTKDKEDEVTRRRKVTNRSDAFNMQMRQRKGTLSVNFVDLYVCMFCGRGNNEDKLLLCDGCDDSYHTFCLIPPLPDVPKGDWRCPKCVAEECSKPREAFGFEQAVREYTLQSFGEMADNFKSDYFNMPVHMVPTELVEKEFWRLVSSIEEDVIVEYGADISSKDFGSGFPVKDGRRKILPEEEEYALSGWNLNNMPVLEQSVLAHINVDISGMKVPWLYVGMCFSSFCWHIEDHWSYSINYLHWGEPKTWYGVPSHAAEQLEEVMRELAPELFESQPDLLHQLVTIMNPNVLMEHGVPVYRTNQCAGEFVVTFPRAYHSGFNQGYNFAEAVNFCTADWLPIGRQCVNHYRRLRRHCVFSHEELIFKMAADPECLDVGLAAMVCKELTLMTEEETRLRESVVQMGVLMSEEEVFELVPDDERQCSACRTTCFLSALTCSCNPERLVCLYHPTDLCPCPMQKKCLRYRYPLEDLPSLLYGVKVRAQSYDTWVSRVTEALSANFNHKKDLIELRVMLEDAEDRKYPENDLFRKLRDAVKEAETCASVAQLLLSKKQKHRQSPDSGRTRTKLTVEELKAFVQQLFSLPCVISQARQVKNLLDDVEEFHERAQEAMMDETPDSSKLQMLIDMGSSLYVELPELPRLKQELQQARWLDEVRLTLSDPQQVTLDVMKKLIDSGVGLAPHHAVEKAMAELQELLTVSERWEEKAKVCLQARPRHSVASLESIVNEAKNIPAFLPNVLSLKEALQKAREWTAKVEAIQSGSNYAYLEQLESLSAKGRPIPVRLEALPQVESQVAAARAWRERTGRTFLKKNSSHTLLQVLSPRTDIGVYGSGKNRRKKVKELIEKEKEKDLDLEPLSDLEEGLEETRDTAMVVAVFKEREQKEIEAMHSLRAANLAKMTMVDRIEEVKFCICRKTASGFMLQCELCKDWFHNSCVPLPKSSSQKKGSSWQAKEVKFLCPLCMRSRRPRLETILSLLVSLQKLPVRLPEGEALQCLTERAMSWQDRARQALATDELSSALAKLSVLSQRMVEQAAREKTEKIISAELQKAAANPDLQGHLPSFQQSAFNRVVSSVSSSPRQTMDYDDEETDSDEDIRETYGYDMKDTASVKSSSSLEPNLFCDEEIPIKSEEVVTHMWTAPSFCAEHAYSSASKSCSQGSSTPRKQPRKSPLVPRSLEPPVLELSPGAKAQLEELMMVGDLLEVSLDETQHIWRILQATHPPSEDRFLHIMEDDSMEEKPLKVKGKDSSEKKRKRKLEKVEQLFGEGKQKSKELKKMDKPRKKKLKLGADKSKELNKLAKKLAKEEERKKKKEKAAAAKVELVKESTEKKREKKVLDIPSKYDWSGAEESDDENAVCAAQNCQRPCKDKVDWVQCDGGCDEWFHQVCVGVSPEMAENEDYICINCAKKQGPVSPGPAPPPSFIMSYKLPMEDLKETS

KDM4C = KDM4C (Homo sapiens (Human), UniProt Q9H3R0); details: biochemical assay with pre-incubation; cited from earlier work
KDM4C, sequence (Q9H3R0 whole entry, species assumed): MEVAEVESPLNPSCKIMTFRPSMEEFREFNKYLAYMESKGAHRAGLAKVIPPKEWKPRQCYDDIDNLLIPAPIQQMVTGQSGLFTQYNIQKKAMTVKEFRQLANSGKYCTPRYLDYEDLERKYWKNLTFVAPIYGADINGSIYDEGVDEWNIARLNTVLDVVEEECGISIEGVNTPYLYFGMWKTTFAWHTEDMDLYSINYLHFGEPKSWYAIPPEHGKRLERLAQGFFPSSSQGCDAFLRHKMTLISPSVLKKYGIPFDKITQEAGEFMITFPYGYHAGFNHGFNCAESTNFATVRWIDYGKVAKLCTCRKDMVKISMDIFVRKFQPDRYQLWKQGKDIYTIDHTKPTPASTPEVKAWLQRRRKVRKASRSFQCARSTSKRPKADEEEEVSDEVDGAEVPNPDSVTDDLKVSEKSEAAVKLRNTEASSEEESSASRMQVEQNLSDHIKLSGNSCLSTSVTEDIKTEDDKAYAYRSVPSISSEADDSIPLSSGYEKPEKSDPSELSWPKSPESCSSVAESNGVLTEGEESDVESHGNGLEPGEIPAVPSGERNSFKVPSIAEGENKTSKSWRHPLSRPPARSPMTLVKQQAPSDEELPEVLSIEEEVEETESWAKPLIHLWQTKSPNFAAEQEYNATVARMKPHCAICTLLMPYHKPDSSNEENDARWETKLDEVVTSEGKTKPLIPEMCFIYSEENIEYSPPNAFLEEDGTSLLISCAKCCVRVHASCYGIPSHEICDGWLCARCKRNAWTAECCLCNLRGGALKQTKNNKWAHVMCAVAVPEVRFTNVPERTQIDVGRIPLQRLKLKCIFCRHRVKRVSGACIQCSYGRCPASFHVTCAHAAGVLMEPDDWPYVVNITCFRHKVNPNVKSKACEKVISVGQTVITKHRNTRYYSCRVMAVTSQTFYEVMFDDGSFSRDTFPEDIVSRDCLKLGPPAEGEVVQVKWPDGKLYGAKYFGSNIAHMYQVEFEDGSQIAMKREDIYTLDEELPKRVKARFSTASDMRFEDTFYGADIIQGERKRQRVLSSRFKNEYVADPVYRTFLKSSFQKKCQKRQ

KDM5A [2] = biological target: T1, KDM5A; details: KDM5A inhibitors disclosed in Miyake et al; cited from earlier work
KDM5B = KDM5B (Homo sapiens (Human), UniProt Q9UGL1); details: biochemical assay with pre-incubation; cited from earlier work
KDM5B, sequence (Q9UGL1 whole entry, species assumed): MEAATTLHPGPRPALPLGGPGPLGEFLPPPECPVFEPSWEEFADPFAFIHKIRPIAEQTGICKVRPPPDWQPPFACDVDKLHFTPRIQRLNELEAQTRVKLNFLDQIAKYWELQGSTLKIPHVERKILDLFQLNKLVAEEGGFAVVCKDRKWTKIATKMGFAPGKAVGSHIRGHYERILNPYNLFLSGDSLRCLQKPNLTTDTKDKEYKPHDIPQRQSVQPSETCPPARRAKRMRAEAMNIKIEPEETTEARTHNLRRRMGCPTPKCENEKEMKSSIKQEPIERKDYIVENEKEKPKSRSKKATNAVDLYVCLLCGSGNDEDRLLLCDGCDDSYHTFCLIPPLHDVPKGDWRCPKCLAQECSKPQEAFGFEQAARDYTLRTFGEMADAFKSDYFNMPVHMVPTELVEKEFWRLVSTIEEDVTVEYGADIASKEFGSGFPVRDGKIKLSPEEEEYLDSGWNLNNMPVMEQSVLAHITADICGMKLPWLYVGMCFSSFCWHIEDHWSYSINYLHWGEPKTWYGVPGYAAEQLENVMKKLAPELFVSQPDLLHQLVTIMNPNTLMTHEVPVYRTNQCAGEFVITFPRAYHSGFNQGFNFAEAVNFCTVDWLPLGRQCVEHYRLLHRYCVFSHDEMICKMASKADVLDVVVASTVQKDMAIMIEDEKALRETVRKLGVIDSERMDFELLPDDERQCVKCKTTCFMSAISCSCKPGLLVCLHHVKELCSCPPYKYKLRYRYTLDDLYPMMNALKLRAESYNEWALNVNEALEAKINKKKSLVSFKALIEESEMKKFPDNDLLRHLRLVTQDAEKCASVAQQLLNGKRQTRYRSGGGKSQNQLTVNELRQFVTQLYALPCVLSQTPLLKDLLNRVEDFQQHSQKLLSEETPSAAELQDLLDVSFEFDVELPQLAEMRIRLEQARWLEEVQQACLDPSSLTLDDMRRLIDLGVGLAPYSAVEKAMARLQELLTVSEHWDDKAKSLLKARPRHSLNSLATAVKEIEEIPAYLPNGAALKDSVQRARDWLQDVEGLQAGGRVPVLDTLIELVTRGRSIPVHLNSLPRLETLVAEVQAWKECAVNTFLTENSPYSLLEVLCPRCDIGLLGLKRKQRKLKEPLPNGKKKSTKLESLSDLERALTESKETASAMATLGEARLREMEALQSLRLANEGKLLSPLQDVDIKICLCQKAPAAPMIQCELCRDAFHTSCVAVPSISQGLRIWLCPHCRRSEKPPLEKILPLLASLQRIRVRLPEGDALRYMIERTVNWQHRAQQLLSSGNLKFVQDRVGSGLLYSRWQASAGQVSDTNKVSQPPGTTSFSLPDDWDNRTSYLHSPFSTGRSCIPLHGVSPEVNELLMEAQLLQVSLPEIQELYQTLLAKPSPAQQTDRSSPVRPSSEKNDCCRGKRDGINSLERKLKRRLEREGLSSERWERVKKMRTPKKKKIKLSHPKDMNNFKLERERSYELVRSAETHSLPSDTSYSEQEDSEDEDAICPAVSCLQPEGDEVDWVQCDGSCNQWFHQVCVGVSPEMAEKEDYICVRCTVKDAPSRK

Structure (SMILES)	IC50 (KDM5A [1])	IC50 (KDM4C)	IC50 (KDM5A [2])	IC50 (KDM5B)
COc1cc(Cl)ccc1COc1ccnn1-c1cc(C(=O)O)ccn1 [Compound 34]	12 nM	38 nM		
CCCCCCN(C)Cc1cccc(-c2[nH]c3c(C#N)cnn3c(=O)c2C(C)C)c1 [Compound 11]			65.3 ± 8.6 nM	
CCOc1cc(Cl)ccc1COc1ccnn1-c1cc(C(=O)O)ccn1 [Compound 35]		78 nM		4 nM
O=C(O)c1ccnc(-n2nccc2OCc2ccc(Cl)cc2F)c1 [Compound 32]	18 nM			4 nM
CCCCCCN(C)Cc1cc(-c2[nH]c3c(C#N)cnn3c(=O)c2C(C)C)cs1 [Compound 12]			179 ± 12 nM	
Cc1cc(Cl)ccc1COc1ccnn1-c1cc(C(=O)O)ccn1 [Compound 33]	13 nM	41 nM		2 nM
CCCCCCN(C)CCc1ccc(-c2[nH]c3c(C#N)cnn3c(=O)c2C(C)C)cc1 [Compound 13]			4.37 ± 0.19 nM	
O=C(O)c1ccnc(-n2nccc2OCc2ccc(Cl)cc2OCC2CC2)c1 [Compound 36]		280 nM		
